The values below come from article PMC7585200, “Methanosarcina acetivorans contains a functional ISC system for iron-sulfur cluster biogenesis” (BMC Microbiology, 2020).

As usually defined, the stoichiometry N is the number of molecules, sites or subunits per partner or assembly.

In assay [1] the target is T1, IscS2 (Methanosarcina acetivorans, UniProt Q8TME0).
T1 construct: gene iscS; full-length, N-terminal His6-tag (pET28a) cut with thrombin, E. coli Rosetta (DE3) pLacI; homodimer (84 kDa by SEC)
In words: sulfide release, methylene blue assay ([…] nm). The class given is biochemical. Particulars: 1 mM L-cysteine, 1 mM DTT, 50 mM Tris pH 7.5, 25 °C, with or without 50 μM PLP.

For assay [2], the target named is T1, IscS2. The assay can be described thus: UV-visible spectrum ([…] nm) and cysteine desulfurase activity with and without PLP. The class given is biochemical. Conditions: PLP reconstitution at pH 7.2, 25 °C; assay 50 mM Tris pH 7.5, 1 mM L-cysteine, 1 mM DTT, 50 μM PLP.
In assay [3] the target is Methanosarcina acetivorans IscS2 (MA2718), reconstituted with PLP (Methanosarcina acetivorans). The assay can be described thus: SEC; IscS2^PLP (3.3 mg loaded) on HiPrep 16/60 Sephacryl S-200, 0.5 ml/min, 50 mM Tris pH 8.0, 150 mM NaCl, 2 mM DTT, 10% glycerol; calibrated with standard proteins; calculated 84 kDa.

T1 sequence (Q8TME0 entry or part of it): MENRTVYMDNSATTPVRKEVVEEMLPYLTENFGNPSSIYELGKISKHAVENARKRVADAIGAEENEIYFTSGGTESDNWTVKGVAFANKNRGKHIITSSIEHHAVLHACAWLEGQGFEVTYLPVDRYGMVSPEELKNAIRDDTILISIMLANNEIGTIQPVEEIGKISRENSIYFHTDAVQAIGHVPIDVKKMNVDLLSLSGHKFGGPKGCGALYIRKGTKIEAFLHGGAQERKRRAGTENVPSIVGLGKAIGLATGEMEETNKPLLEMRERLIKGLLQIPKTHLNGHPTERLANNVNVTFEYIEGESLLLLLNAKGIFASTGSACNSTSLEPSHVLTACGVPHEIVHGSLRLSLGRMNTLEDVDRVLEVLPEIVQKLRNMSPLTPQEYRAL

As for `N[C@@H](CS)C(=O)O` [L-cysteine], the “sulfide release, methylene blue assay (670 nm)” value in assay [1] was “Purified IscS2 was able to remove sulfur from L-cysteine”.

Take `Cc1ncc(COP(=O)(O)O)c(C=O)c1O` [PLP]: the “UV-visible spectrum (420 nm) and cysteine desulfurase activity with and without” value in assay [2] is listed as “these results reveal that IscS2 is a PLP-dependent cysteine desulfurase”. In the case of “Methanosarcina acetivorans IscS2 (MA2718), reconstituted with PLP (enzyme)”, in assay [3], the stoichiometry N is 2.
